Test results from article PMC11859419, “New UB006 Derivatives With Higher Solubility and Cytotoxic Activity in Ovarian Cancer Cells” (Pharmaceuticals, 2025).
≈ marks a conversion by molar mass, not a printed value. Like-named read-outs stand apart in the source and are kept apart here.

Assays:
[1] = parameters: method as in earlier work; settings: cited from earlier work
[2] = target: T1, FAS (Rattus norvegicus, UniProt P12785); parameters: method as in PMID 23620264; settings: previously described by the group; read-out: IC50 (FAS inhibition); cited from earlier work
T1 construct: Cytosolic hepatic extracts obtained from rat (210 µg) were preincubated at 30 °C for 30 min; from tissue; host or cells: rat liver (cytosolic, FAS-enriched hepatic extract)

[3] = tested on: OVCAR-3 cell line; experiment: MTT cytotoxicity assay in OVCAR-3 ovarian cancer cells; assay type: cell-based, human; settings: for IC50: Homo sapiens, OVCAR-3, 72 h incubation, MTT, mean ± SEM of three experiments; for Fold increase in cytotoxicity compared with (±)-UB006: OVCAR-3, ratio of IC50 values
Protocol: OVCAR-3 (human ovary carcinoma, ATC HTB-161, passage number 20) cells were cultured at 37 °C in a humidified atmosphere of 5% CO2 in Dulbecco’s Modified Eagle Medium containing 4.5 g/L of glucose and supplemented with glutamine, 10% heat-inactivated fetal bovine serum, 100 units/mL of penicillin, and […] of streptomycin. The culture was passaged twice a week through gentle trypsinization. Cells were seeded in 10 cm culture dishes and grown to confluence. An MTT cytotoxicity assay was performed to evaluate the cytotoxic effect of the compounds. A total of 2 × 10^3 cells/well were plated in 96-well plates in […] of culture medium. After 24 h, the medium was removed, and cells were incubated for 72 h in fresh medium with different concentrations (0.5–20 µM) of the different compounds. DMSO was used as a blank at a final concentration of 0.5%. The cells were then incubated for 3 h with […] of fresh medium and […] of MTT dissolved in phosphate-buffered saline to a final concentration of 5 mg/mL. Following treatment, the supernatants were carefully removed, and the MTT–formazan crystals were solubilized by adding […] of DMSO. The absorbance was measured at 570 nm.
Samples were incubated for 3 days with increasing concentrations of the different compounds, followed by an MTT assay to quantify cell survival.

[4] = Turbidimetry solubility assay; assay type: physicochemical; settings: for solubility at 2 h: kinetic from dmso stock, 2 h at 37 °C, tested 25 μM–2 mM; for Solubility over tested concentrations: tested concentrations 25–2000 µM
Protocol: This effectively created two regression lines, with the intersection corresponding to the solubility of the compound.
The compounds were incubated for 2 h at 37 °C in a Thermoshaker (Biosan®, Riga, Latvia). Solubility was assessed through turbidimetry at 600 nm using Varioskan Lux® (Thermo Scientific®, Waltham, MA, USA). The approximate solubility was calculated by finding the intersection of the two regression lines formed before and after the curve tendency change due to precipitation of the compounds.

[5] = target: T1, FAS; experiment: Spectrophotometric FAS activity assay in rat liver extracts; assay type: biochemical; settings: rat liver extracts (210 µg), preincubated 30 min at 30 °C, mean ± SEM of three experiments
Protocol: For in vitro experiments, FAS was purified from rat liver following the protocol previously described by Linn. FAS activity was measured using a spectrophotometric method, as previously described. […] NADPH (121 µM) and acetyl-CoA (61 µM) in potassium phosphate buffer (pH 7.2) were added to preincubated enzyme and equilibrated at 37 °C for 3 min. The reaction was initiated through the addition of malonyl-CoA (55 µM). The total reaction volume was 330 µL. Oxidation of NADPH was measured at 340 nm at 37 °C for 10 min.
Figure 3 FAS activity assay in rat liver extracts. Representation of % of remaining FAS activity of spectrophotometric activity assay.

T1 sequence (P12785 whole entry): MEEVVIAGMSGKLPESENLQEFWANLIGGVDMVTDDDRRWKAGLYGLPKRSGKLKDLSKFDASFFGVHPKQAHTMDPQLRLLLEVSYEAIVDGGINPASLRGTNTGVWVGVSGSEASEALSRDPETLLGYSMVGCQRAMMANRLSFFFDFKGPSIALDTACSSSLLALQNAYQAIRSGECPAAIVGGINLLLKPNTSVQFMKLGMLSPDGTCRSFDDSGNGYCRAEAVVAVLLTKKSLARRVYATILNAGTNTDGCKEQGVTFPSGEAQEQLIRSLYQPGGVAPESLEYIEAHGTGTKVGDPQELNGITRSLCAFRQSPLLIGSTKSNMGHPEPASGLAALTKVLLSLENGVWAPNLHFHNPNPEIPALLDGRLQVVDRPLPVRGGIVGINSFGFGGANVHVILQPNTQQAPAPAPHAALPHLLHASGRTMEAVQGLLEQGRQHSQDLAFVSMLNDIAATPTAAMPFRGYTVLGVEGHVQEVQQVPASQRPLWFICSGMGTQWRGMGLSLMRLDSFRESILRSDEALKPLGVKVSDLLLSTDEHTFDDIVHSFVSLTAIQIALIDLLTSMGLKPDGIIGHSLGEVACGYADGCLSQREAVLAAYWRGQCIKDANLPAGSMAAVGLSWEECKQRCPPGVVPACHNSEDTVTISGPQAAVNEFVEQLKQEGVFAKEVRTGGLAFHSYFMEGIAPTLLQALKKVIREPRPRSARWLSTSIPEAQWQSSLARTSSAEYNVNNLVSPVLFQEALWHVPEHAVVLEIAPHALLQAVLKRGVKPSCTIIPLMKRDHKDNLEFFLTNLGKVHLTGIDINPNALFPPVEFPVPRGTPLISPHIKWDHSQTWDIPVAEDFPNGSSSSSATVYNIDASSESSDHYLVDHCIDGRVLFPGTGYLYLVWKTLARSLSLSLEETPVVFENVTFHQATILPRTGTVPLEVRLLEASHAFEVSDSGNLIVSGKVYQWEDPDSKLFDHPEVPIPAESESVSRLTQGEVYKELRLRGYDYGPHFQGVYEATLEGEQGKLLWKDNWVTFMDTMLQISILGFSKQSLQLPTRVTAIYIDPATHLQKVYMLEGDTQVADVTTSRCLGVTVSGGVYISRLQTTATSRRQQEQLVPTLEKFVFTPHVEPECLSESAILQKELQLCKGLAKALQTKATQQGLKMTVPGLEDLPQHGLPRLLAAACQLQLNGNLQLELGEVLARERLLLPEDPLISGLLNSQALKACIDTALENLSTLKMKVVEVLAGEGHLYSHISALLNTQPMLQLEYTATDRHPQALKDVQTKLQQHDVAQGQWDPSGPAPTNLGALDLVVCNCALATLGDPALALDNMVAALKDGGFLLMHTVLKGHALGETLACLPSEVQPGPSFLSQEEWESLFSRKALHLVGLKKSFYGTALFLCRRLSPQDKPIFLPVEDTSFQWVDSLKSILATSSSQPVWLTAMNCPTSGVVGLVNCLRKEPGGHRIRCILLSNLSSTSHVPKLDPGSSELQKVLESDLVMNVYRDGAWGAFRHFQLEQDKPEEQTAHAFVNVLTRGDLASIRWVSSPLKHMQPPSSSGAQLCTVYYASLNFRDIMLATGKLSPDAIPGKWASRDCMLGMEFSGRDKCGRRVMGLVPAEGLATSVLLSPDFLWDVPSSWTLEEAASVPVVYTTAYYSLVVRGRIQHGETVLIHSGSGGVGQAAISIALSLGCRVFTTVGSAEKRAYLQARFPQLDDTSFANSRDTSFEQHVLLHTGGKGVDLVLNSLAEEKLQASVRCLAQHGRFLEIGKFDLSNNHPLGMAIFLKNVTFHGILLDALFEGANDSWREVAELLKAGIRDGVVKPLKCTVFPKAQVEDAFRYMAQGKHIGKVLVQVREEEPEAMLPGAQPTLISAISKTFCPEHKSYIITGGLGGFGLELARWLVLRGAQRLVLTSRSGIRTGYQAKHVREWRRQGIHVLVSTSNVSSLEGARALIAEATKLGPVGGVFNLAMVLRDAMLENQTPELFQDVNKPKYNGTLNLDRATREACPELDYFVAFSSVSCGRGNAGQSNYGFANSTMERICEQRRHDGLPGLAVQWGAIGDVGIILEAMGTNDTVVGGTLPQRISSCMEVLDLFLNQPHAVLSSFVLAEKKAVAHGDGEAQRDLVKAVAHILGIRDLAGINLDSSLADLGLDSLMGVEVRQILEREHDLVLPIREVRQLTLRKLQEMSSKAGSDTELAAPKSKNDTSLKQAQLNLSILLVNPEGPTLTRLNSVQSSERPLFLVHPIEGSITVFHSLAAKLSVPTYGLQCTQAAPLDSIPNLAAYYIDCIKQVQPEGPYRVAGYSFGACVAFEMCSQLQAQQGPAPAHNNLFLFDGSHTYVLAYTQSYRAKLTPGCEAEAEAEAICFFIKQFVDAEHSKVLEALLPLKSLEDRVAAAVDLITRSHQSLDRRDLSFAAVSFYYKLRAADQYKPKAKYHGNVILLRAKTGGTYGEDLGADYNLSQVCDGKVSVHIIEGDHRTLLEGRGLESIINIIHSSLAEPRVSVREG

Row | SMILES | solubility at 2 h ([4]; water with 1% DMSO) [µM] | IC50 [3] [µM] | other results
1 | C=C1C(=O)O[C@@H](CCCCCCCC)[C@@H]1C(=O)O (racemic) [(±)-C75] | – | – | Solubility in basic aqueous media ([1]; basic aqueous media): < 100 µg/mL; Solubility in water ([1]; water): insoluble in water; IC50 [2]: 460 ± 56 µM
2 | C=C1C(=O)O[C@@H](CCCCCCCC)[C@H]1C(C)O (mixture of isomers) [(±)-UB031, (4RS,5SR)-4-(1-hydroxyethyl)-3-methylene-5-octyldihydrofuran-2(3H)-one] | 473 (≈ 120 µg/mL) | 3.6 ± 0.2 | Fold increase in cytotoxicity compared with (±)-UB006 [3]: 1.4 fold
3 | C=C1C(=O)O[C@@H](CCCCCCCC)[C@@H]1CO (racemic) [(±)-UB006, (4SR,5SR)-4-(hydroxymethyl)-3-methylene-5-octyldihydrofuran-2(3H)-one] | 550 (≈ 132 µg/mL) | – | –

More lines, main results first:

Row | solubility at 2 h ([4]; water with 1% DMSO) [µM] | SMILES | IC50 [3] [µM] | other results
4 | > 2000 | C=C1C(=O)O[C@@H](CCCCCCCC)[C@H]1[C@@H](O)CO (racemic) [(±)-UB035, (4RS,5SR)-4-((RS)-1,2-dihydroxyethyl)-3-methylene-5-octyldihydrofuran-2(3H)-one] | 2.1 ± 0.2 | Fold increase in cytotoxicity compared with (±)-UB006 [3]: 2.5 fold; IC50 [5]: 565 ± 62 µM; Solubility over tested concentrations [4]: soluble at all tested concentrations
5 | > 2000 | C=C1C(=O)O[C@@H](CCCCCCCC)[C@H]1C(O)C(O)CO (mixture of isomers) [(±)-UB036, (4RS,5SR)-3-methylene-5-octyl-4-(1,2,3-trihydroxypropyl)dihydrofuran-2(3H)-one] | 5.5 ± 0.8 | IC50 [5]: 458 ± 54 µM; Solubility over tested concentrations [4]: soluble at all tested concentrations; Fold increase in solubility compared with (±)-UB006 ([4]; water with 1% DMSO): ≥ 4 fold
6 | 76 (≈ 24.7 µg/mL) | C=C1C(=O)O[C@@H](CCCCCCCC)[C@H]1C(O)CCCCCC (mixture of isomers) [(±)-UB033, (4RS,5SR)-4-(1-hydroxyheptyl)-3-methylene-5-octyldihydrofuran-2(3H)-one] | 13.6 ± 1.3 | –
7 | 88 (≈ 23.4 µg/mL) | C=CC(O)[C@H]1C(=C)C(=O)O[C@H]1CCCCCCCC (mixture of isomers) [(±)-UB034, (4RS,5SR)-4-(1-hydroxyallyl)-3-methylene-5-octyldihydrofuran-2(3H)-one] | 12.3 ± 1.2 | –
8 | 390 (≈ 105 µg/mL) | C=C1C(=O)O[C@@H](CCCCCCCC)[C@H]1C(O)CC (mixture of isomers) [(±)-UB032, (4RS,5SR)-4-(1-hydroxypropyl)-3-methylene-5-octyldihydrofuran-2(3H)-one] | 10.7 ± 0.9 | –
